Like-named read-outs stand apart in the source and are kept apart here.
Experiments:
Type in all cases: cell-based
[1] = tested on: HCC827 cells (EGFR Exon19 del, non-small cell lung cancer cells); assay: Cell viability assay (WST/CCK8), HCC827 cells; details: Homo sapiens, HCC827, 72 h, read-out: IC50 (half inhibitory concentration)
How it was run: (§1)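 Plated 3 000 cells/well in complete RPMI1640 the day before dosing; controls were DMSO (negative) and EGFR TKIs (positive).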

[2] = tested on: PC9BracA1 (EGFR Exon 19 del+T790M, non-small cell lung cancer cells); assay: Cell viability assay (WST/CCK8), PC9Brac1 cells; details: read-out: IC50 (half inhibitory concentration)
From the text: (§2) The cell lines with abnormal EGFR expression used are as follows: • HCC827 cells (EGFR Exon19 del, non-small cell lung cancer cells); • PC9 cells (EGFR Exon 19 del, non-small cell lung cancer cells); • PC9BracA1 (EGFR Exon 19 del+T790M, non-small cell lung cancer cells) • H1975 (EGFR Exon T790M+L858R mutation, non-small cell lung cancer cell line) • BT474 cells (HER2 positive breast cancer cells)
(§3) All of the half inhibitory concentrations (IC50) of these compounds of the present invention were determined with WST reagent from Fuyuan Biotec Company. The specific experiment procedures are as follows: Cancer cells were planted in 96-well-plate at the density of 3 000 cells per well with 100 μL RPMI1640 completed culture medium. In the next day, compounds with indicated concentrations were added to the cells, DMSO was used as the negative control and the EGFR TKIs were used to treat cells as the positive groups. After 72 hours drug treatment, cell viability was measured by using the WST reagent following the instructions.

[3] = tested on: H1975 (EGFR T790M+L858R mutation, non-small cell lung cancer cell line); assay: Cell viability assay (WST/CCK8), H1975 cells; details: Homo sapiens, read-out: IC50 (half inhibitory concentration)
From the text: as §2, §3

[4] = tested on: PC9 cells (EGFR Exon 19 del, non-small cell lung cancer cells); assay: Cell viability assay (WST/CCK8), PC9 cells; details: Homo sapiens, read-out: IC50 (half inhibitory concentration)
How it was run: as §1

[5] = tested on: BT474 cells (HER2 positive breast cancer cells); assay: Cell viability assay (CCK8), BT474 cells; details: Homo sapiens, BT-474, Table 10, BT474, 72 hours, read-out: IC50 (half inhibitory concentration)
From the text: as §2
as §3, with “instructions. The growth inhibition curve of the compounds on cells were plotted by Prism GraphPad, and the compounds IC50 calculated from it.” for “instructions.”
The cell viability assays were taken to determine the anti-tumor activity of these indicated compounds in BT474 cells, which can overexpress HER2 protein. The cells were treated with the gradient concentration of these compounds (the maximum concentration: 10 μM; 3-fold dilution ratio, 10 concentration gradients) for 72 hours and then incubated with the CCK8 reagent to determine the cell viability.

[6] = Table 8, osimertinib-based compounds, HCC827, 72 hours, WST
[7] = Table 8, osimertinib-based compounds, Pc9Brc1, 72 hours, WST
[8] = NCI-H1975, Table 8, osimertinib-based compounds, H1975, 72 hours, WST
[9] = PC-9, Table 8, osimertinib-based compounds, PC9, 72 hours, WST
[10] = HCC827 (Exon19 Del), 72 hours, WST (CCK8)
[11] = NCI-H1975, H1975 (L858R + T790M), 72 hours, WST
[12] = PC-9, PC9 (Exon19 Del), 72 hours, WST (CCK8)
[13] = PC9Brac1 (Ex19del + T790M), 72 hours, WST

C=CC(=O)Nc1cc(Nc2nccc(-c3cn(C)c4ccccc34)n2)c(OC)cc1N(C)CCN(C)CCCCCCCC#Cc1cccc2c1CN(C1CCC(=O)NC1=O)C2=O (centres unmarked)
IC50 [1, 6]: 9 nM | IC50 [2, 7]: 413 nM | IC50 [3, 8]: 117 nM | IC50 [4, 9]: 161 nM

C=CC(=O)Nc1cc(Nc2nccc(-c3cn(C)c4ccccc34)n2)c(OC)cc1N(C)CCN(C)C [Osimertinib, reference compound]
IC50 [1]: 0.36 nM | IC50 ([2]; 72 h): 354 nM | IC50 ([3]; NCI-H1975, 72 h): 2 nM | IC50 ([4]; PC-9, 72 h): 4 nM

COc1cc2ncnc(Nc3ccc(F)c(Cl)c3)c2cc1NC(=O)/C=C/CN1CCC(NC(=O)CNc2cccc3c2C(=O)N(C2CCC(=O)NC2=O)C3=O)CC1 (centres unmarked) [SIAIS249081, (E)-N-(4-((3-chloro-4-fluorophenyl)amino)-7-methoxyquinazolin-6-yl)-4-(4-(2-((2-(2,6-dioxopiperidin-3-yl)-1,3-dioxoisoindolin-4-yl)amino)acetamido)piperidin-1-yl)but-2-enamide]
IC50 [1, 10]: 12 nM | IC50 [3, 11]: 114 nM | IC50 [4, 12]: 32.6 nM

COc1cc2ncnc(Nc3ccc(F)c(Cl)c3)c2cc1NC(=O)/C=C/CN1CCC(NC(=O)CCCNc2cccc3c2C(=O)N(C2CCC(=O)NC2=O)C3=O)CC1 (centres unmarked) [SIAIS249083, (E)-N-(4-((3-chloro-4-fluorophenyl)amino)-7-methoxyquinazolin-6-yl)-4-(4-(4-((2-(2,6-dioxopiperidin-3-yl)-1,3-dioxoisoindolin-4-yl)amino)butanamido)piperidin-1-yl)but-2-enamide]
IC50 [1, 10]: 5 nM | IC50 [2, 13]: 435 nM | IC50 [4, 12]: 2.9 nM | IC50 [5]: 64.9 nM

COc1cc2ncnc(Nc3ccc(F)c(Cl)c3)c2cc1NC(=O)/C=C/CN1CCC(NC(=O)CCCCCNc2cccc3c2C(=O)N(C2CCC(=O)NC2=O)C3=O)CC1 (centres unmarked) [SIAIS249084, (E)-N-(1-(4-((4-((3-chloro-4-fluorophenyl)amino)-7-methoxyquinazolin-6-yl)amino)-4-oxobut-2-en-1-yl)piperidin-4-yl)-6-((2-(2,6-dioxopiperidin-3-yl)-1,3-dioxoisoindolin-4-yl)amino)hexanamide]
IC50 [1, 10]: 3 nM | IC50 [2, 13]: 434 nM | IC50 [4, 12]: 0.6 nM | IC50 [5]: 6.08 nM

COc1cc2ncnc(Nc3ccc(F)c(Cl)c3)c2cc1NC(=O)/C=C/CN1CCC(N2CCNCC2)CC1 [SIAIS262021, (E)-N-(4-((3-chloro-4-fluorophenyl)amino)-7-methoxyquinazolin-6-yl)-4-(4-(piperazin-1-yl)piperidin-1-yl)but-2-enamide]
IC50 [2, 13]: 954 nM | IC50 [5]: 32.6 nM

COc1cc2ncnc(Nc3ccc(F)c(Cl)c3)c2cc1NC(=O)/C=C/CN1CCC(N2CCN(C(=O)CSc3cccc4c3CN(C3CCC(=O)NC3=O)C4=O)CC2)CC1 (centres unmarked) [SIAIS262034, (E)-N-(4-((3-chloro-4-fluorophenyl)amino)-7-methoxyquinazolin-6-yl)-4-(4-(4-(2-((2-(2,6-dioxopiperidin-3-yl)-1-oxoisoindolin-4-yl)thio)acetyl)piperazin-1-yl)piperidin-1-yl)but-2-enamide]
IC50 [1, 10]: 3.6 nM | IC50 [3, 11]: 828 nM | IC50 [4, 12]: 11.3 nM

C=CC(=O)Nc1cc2c(Nc3ccc(F)c(Cl)c3)ncnc2cc1OCCCN1CCC(N2CCN(C(=O)CCCCSc3cccc4c3CN(C3CCC(=O)NC3=O)C4=O)CC2)CC1 (centres unmarked) [SIAIS262175, N-(4-((3-chloro-4-fluorophenyl)amino)-7-(3-(4-(4-(5-((2-(2,6-dioxopiperidin-3-yl)-1-oxoisoindolin-4-yl)thio)pentanoyl)piperazin-1-yl)piperidin-1-yl)propoxy)quinazolin-6-yl)acrylamide]
IC50 ([1]; Table 6, canertinib-based compounds, HCC827 (Exon19 Del), 72 hours, WST): 6.7 nM | IC50 ([3]; NCI-H1975, Table 7, canertinib-based compounds, H1975 (L858R + T790M)): 430 nM | IC50 ([4]; PC-9, Table 6, canertinib-based compounds, PC9 (Exon19 Del), 72 hours, WST): 17 nM | IC50 [5]: 22.5 nM

COc1cc2ncnc(Nc3ccc(F)c(Cl)c3)c2cc1NC(=O)/C=C/CN1CCC(N2CCN(Cc3ccc(CNc4cccc5c4CN(C4CCC(=O)NC4=O)C5=O)cc3)CC2)CC1 (centres unmarked) [SIAIS337024, (E)-N-(4-((3-chloro-4-fluorophenyl)amino)-7-methoxyquinazolin-6-yl)-4-(4-(4-(4-(((2-(2,6-dioxopiperidin-3-yl)-1-oxoisoindolin-4-yl)amino)methyl)benzyl)piperazin-1-yl)piperidin-1-yl)but-2-enamide]
IC50 [1, 10]: 1.1 nM | IC50 [4, 12]: 13 nM | IC50 [5]: 51.5 nM

C=CC(=O)Nc1cc(Nc2nccc(-c3cn(C)c4ccccc34)n2)c(OC)cc1N(C)CCN(C)C(=O)CCCCCSc1cccc2c1CN(C1CCC(=O)NC1=O)C2=O (centres unmarked) [SIAIS337056, N-(2-((2-acrylamido-5-methoxy-4-((4-(1-methyl-1H-indol-3-yl)pyrimidin-2-yl)amino)phenyl)(methyl)amino)ethyl)-6-((2-(2,6-dioxopiperidin-3-yl)-1-oxoisoindolin-4-yl)thio)-N-methylhexanamide]
IC50 [1, 6]: 114 nM | IC50 [2, 7]: 973 nM

C=CC(=O)Nc1cc(Nc2nccc(-c3cn(C)c4ccccc34)n2)c(OC)cc1N(C)CCN(C)C(=O)CCCCCCSc1cccc2c1CN(C1CCC(=O)NC1=O)C2=O (centres unmarked) [SIAIS337057, N-(2-((2-acrylamido-5-methoxy-4-((4-(1-methyl-1H-indol-3-yl)pyrimidin-2-yl)amino)phenyl)(methyl)amino)ethyl)-7-((2-(2,6-dioxopiperidin-3-yl)-1-oxoisoindolin-4-yl)thio)-N-methylheptanamide]
IC50 [1, 6]: 47.7 nM | IC50 [3, 8]: 21 nM

C=CC(=O)Nc1cc(Nc2nccc(-c3cn(C)c4ccccc34)n2)c(OC)cc1N(C)CCN(C)C(=O)CCCCCCCCCSc1cccc2c1CN(C1CCC(=O)NC1=O)C2=O (centres unmarked) [SIAIS337060, N-(2-((2-acrylamido-5-methoxy-4-((4-(1-methyl-1H-indol-3-yl)pyrimidin-2-yl)amino)phenyl)(methyl)amino)ethyl)-10-((2-(2,6-dioxopiperidin-3-yl)-1-oxoisoindolin-4-yl)thio)-N-methyldecanamide]
IC50 [1, 6]: 122 nM | IC50 [3, 8]: 171 nM

C=CC(=O)Nc1cc(Nc2nccc(-c3cn(C)c4ccccc34)n2)c(OC)cc1N(C)CCN(C)CCCCCCCCSc1cccc2c1CN(C1CCC(=O)NC1=O)C2=O (centres unmarked) [SIAIS337084, N-(2-((2-((8-((2-(2,6-dioxopiperidin-3-yl)-1-oxoisoindolin-4-yl)thio)octyl)(methyl)amino)ethyl)(methyl)amino)-4-methoxy-5-((4-(1-methyl-1H-indol-3-yl)pyrimidin-2-yl)amino)phenyl)acrylamide]
IC50 [1, 6]: 353 nM | IC50 [2, 7]: 686 nM | IC50 [4, 9]: 271 nM

C=CC(=O)Nc1cc2c(Nc3ccc(F)c(Cl)c3)ncnc2cc1OCCCN1CCOCC1 [canertinib, reference compound]
IC50 [1]: 0.7 nM | IC50 ([4]; PC-9, 72 h): 0.9 nM | IC50 [5]: 17.5 nM

C=CC(=O)N1CCC(Oc2cc3c(Nc4ccc(Cl)c(Cl)c4F)ncnc3cc2OC)CC1 [poziotinib, reference compound]
IC50 [1, 10]: 0.5 nM | IC50 ([1]; Table 3, poziotinib-based compounds, HCC827 (Exon19 Del), 72 hours, WST (CCK8)): 0.5 nM | IC50 ([4]; PC-9, Table 3, poziotinib-based compounds, PC9 (Exon 19 Del), 72 hours, WST (CCK8)): < 0.1 nM | IC50 [5]: < 0.1 nM

— US12564638B2 (SHANGHAITECH UNIVERSITY, priority 2019, dated 2026)
